# Article PMC12040169 (PLOS Biology, 2025)
# Experiments:
# in vitro = assay: in vitro; parameters: Viability of infected HeLa host cells, resazurin conversion, bulk resorufin fluorescence relative to DMSO; conditions: human, hela cells; bulk resorufin, mean of 3
# [1] = test system: T1, CTL2-GFP (C. trachomatis L2/434/Bu, GFP-expressing); assay: microbe, parasite or virus in culture; parameters: species or system HeLa; C. trachomatis growth in HeLa, dose-response, mean of bulk GFP fluorescence and imaged total inclusion area; conditions: Chlamydia trachomatis, 28.5 h; mean of GFP and inclusion area
# T1 construct: L2/434/Bu, GFP-expressing
# Source text: (§1) We screened a library of 36,785 small molecules displaying drug-like properties and covering a wide chemical space (Fig 1A and S2A Data). In this process, we also complemented the assay described above with an imaging-based readout (Fig 1B). After measurements of bulk GFP and resorufin fluorescence, cells were fixed, stained with the DNA dye Hoechst, and imaged at a high-content imaging platform to detect chlamydial inclusions (GFP) and host cell nuclei (Hoechst). The total area and number of inclusions in individual wells and the number of nuclei then served as additional proxies for chlamydial growth and host cell viability. […] MICs were calculated as described above.
# [2] = test system: T1, CTL2-GFP (C. trachomatis L2/434/Bu, GFP-expressing); assay: microbe, parasite or virus in culture; parameters: C. trachomatis growth in HeLa, dose-response, mean of bulk GFP fluorescence and imaged total inclusion area; conditions: Chlamydia trachomatis, HeLa, 28.5 h; mean of GFP and inclusion area
# Source text: as §1
SMILES,"viability at 28.5 h, 0.000416667 µM (in vitro) [%]","viability at 28.5 h, 0.00125 µM (in vitro) [%]","viability at 28.5 h, 0.00375 µM (in vitro) [%]","viability at 28.5 h, 0.0123333 µM (in vitro) [%]","viability at 28.5 h, 0.037 µM (in vitro) [%]","viability at 28.5 h, 0.111 µM (in vitro) [%]","viability at 28.5 h, 0.333 µM (in vitro) [%]","viability at 28.5 h, 1 µM (in vitro) [%]","viability at 28.5 h, 3 µM (in vitro) [%]","viability at 28.5 h, 10 µM (in vitro) [%]","viability at 28.5 h, 30 µM (in vitro) [%]",MIC [1] [µM],IC50 [2] [µM]
COc1ccc2cc3c(nc2c1)OC(=O)N(CC1CC1)C3 [c32e],102,94.1,91.5,92,89.7,84.5,88.5,84.9,86.8,85.1,85.4,4.53,3.16
Fc1cccc(F)c1OCCOc1nc(N2CCNCC2)ccc1C(F)(F)F [c21e],85.4,87.7,84,87.6,84.7,89.9,90.4,93.9,87.9,91.3,0,8.28,1.7
Oc1ccccc1Nc1nc(NC2CCCC2)c2ccccc2n1 [c49e],84.4,94.9,87.6,90,86,91.7,87.8,90.1,84.7,90.6,77.3,10.8,7.48
O=C1C(NCCO)=C(Nc2cccc(Cl)c2)C(=O)c2ccccc21 [c45e],89.2,87.4,91,91.6,91.8,88.5,92.8,89.8,93.6,97.9,102,19.4,6.16
COc1ccc([C@@H]2CN(C)C[C@H]2NC(=O)Nc2ccc(Cl)c(Cl)c2)cc1OC [c39e],93.1,88.4,92.6,90.6,94.9,83.9,87.9,84.4,86.1,84.6,81.3,5.39,4.96
COc1ccc(C2CC(=O)C=C(Nc3cc(Cl)ccc3O)C2)cc1 (stereo not shown) [c24e],94,92.4,94.1,84.9,89.8,84.5,88.6,85.7,87.6,83.7,88.4,5.71,2.46
CCOc1ccc2nc(NC(=N)N)nc(C)c2c1 [c37e],85.5,89.1,85.5,89,86.7,91.1,88.4,87.7,84.7,79,55.2,11.4,4.22
O=C(Nc1ccccc1N1CCCNCC1)c1ccc2ccccc2c1 [c29e],108,107,108,107,109,116,114,115,111,116,112,5.56,2.87
O=C(Nc1ccc(OC(F)(F)F)cc1)Nc1cc(-c2cccs2)n[nH]1 [c26e],104,100,99.3,100,96.1,106,106,108,105,103,96.4,3.98,2.5
Cc1cccc(OCC(C)NC(=O)NCCc2cnn(C)c2)c1 (stereo not shown) [c47e],97.2,99.7,102,104,105,100,112,106,109,113,118,12.1,6.59
COCC(=O)N[C@H]1C[C@H]2C(=O)Nc3ccc(/C=C/c4ccccc4)cc3C(=O)N2C1 [c25e],97.4,103,99.5,105,100,98.6,102,106,110,113,113,9.14,2.47
Cc1cccc(-c2ccc(CC3(C(N)=O)CCN(C(=O)CCc4ccccc4)CC3)cc2)c1 [c38e],101,97.3,96.8,101,98.4,98.7,94.7,103,99.3,104,114,8.43,4.84
C1=C(CCNCCc2ccccc2)c2ccccc2C12CCCC2 [c51e],99.8,96.2,101,98.1,101,97.8,99.6,102,100,106,96.5,9.36,8.3
